Measured values reported in ChEMBL document CHEMBL5331050, “Spiro[benzoxazine-piperidin]-one derivatives as chitin synthase inhibitors and antifungal agents: Design, synthesis and biological evaluation” (Eur J Med Chem, 2022).
Values after ≈ are worked out from the molar mass of the structure shown. *1 amine or outer side, *2 acyl side, *3 side chain or, on linkers, in order; H or OH if unused. Where a SMILES comes first, the peptide text is derived from it. Bridges are numbered along the chain shown (N, C = ends). [ ]: non-standard residue; d: D form. The star is where a group is joined. hTyr(3S-OH,4S-OH,3'-OSO3H) = N[C@H](C(=O)O)[C@H](O)[C@@H](O)c1ccc(O)c(OS(=O)(=O)O)c1; Orn(4R-OH,5R-OH) = O=C([C@H](C[C@@H](O)[C@@H](O)N[*:3])N[*:1])[*:2]; Pro(3S-OH,4S-Me) = C[C@H]1CN[C@H](C(=O)O)[C@H]1O; X1 = CCCCCOc1ccc(-c2cc(-c3ccc(C(=O)*)cc3)no2)cc1; Gln(3R-OH) = NC(=O)C[C@@H](O)[C@H](N)C(=O)O; Hyp = O=C(O)[C@@H]1C[C@@H](O)CN1

Key:
Candida albicans [1] = experiment: Antifungal activity against Candida albicans ATCC 76615 assessed as fungal growth inhibition incubated for 24 hrs by CLSI protocol based broth microdilution method; assay type: functional
Cryptococcus neoformans [2] = experiment: Antifungal activity against Cryptococcus neoformans ATCC 208821 assessed as fungal growth inhibition incubated for 24 hrs by CLSI protocol based broth microdilution method; assay type: functional
Candida albicans [3] = experiment: Antifungal activity against micafungin-resistant Candida albicans ATCC 76615R assessed as fungal growth inhibition; assay type: functional
Candida tropicalis = experiment: Inhibition of Candida tropicalis ATCC 750 chitin synthase using UDP-GlcNAc as substrate at 300 ug/ml incubated for 1 hrs by absorbance based assay relative to control; details: dose 300.0 µg/ml
[4] = Inhibition of Candida tropicalis ATCC 750 chitin synthase using UDP-GlcNAc as substrate incubated for 1 hrs by absorbance based assay
Aspergillus flavus [5] = experiment: Antifungal activity against Aspergillus flavus ATCC 16870 assessed as fungal growth inhibition incubated for 24 hrs by CLSI protocol based broth microdilution method; assay type: functional
Aspergillus fumigatus [6] = experiment: Antifungal activity against Aspergillus fumigatus GIMCC 3.19 assessed as fungal growth inhibition incubated for 24 hrs by CLSI protocol based broth microdilution method; assay type: functional
Candida albicans [7] = experiment: Antifungal activity against fluconazole-resistant Candida albicans ATCC 76615R assessed as fungal growth inhibition; assay type: functional
Cryptococcus neoformans [8] = experiment: Antifungal activity against fluconazole-resistant Cryptococcus neoformans ATCC 208821R assessed as fungal growth inhibition; assay type: functional
Candida albicans [9] = experiment: Synergistic antifungal activity against Candida albicans ATCC 76615 assessed as fungal growth inhibition incubated for 24 hrs in the presence of fluconazole by broth dilution based checkerboard method; assay type: functional
Aspergillus fumigatus [10] = experiment: Synergistic antifungal activity against Aspergillus fumigatus GIMCC 3.19 assessed as fungal growth inhibition incubated for 24 hrs in the presence of fluconazole by broth dilution based checkerboard method; assay type: functional
Cryptococcus neoformans [11] = experiment: Synergistic antifungal activity against Cryptococcus neoformans ATCC 208821 assessed as fungal growth inhibition incubated for 24 hrs in the presence of fluconazole by broth dilution based checkerboard method; assay type: functional
Aspergillus flavus [12] = experiment: Synergistic antifungal activity against Aspergillus flavus ATCC 16870 assessed as fungal growth inhibition incubated for 24 hrs in the presence of fluconazole by broth dilution based checkerboard method; assay type: functional
Candida albicans [13] = experiment: Synergistic antifungal activity against Candida albicans ATCC 76615 assessed as fractional inhibitory concentration index incubated for 24 hrs in the presence of fluconazole by broth dilution based checkerboard method; assay type: functional
Aspergillus fumigatus [14] = experiment: Synergistic antifungal activity against Aspergillus fumigatus GIMCC 3.19 assessed as fractional inhibitory concentration index incubated for 24 hrs in the presence of fluconazole by broth dilution based checkerboard method; assay type: functional
Cryptococcus neoformans [15] = experiment: Synergistic antifungal activity against Cryptococcus neoformans ATCC 208821 assessed as fractional inhibitory concentration index incubated for 24 hrs in the presence of fluconazole by broth dilution based checkerboard method; assay type: functional
Aspergillus flavus [16] = experiment: Synergistic antifungal activity against Aspergillus flavus ATCC 16870 assessed as fractional inhibitory concentration index incubated for 24 hrs in the presence of fluconazole by broth dilution based checkerboard method; assay type: functional
[17] = Inhibition of chitin synthase (unknown origin); design: species or system Fungi
Aspergillus flavus [18] = experiment: Antifungal activity against Aspergillus flavus ATCC 16870 assessed as disruption of fungal wall by measuring fungal growth incubated for 24 hrs in the presence of sorbitol; assay type: functional
Aspergillus fumigatus [19] = experiment: Antifungal activity against Aspergillus fumigatus GIMCC 3.19 assessed as disruption of fungal wall by measuring fungal growth incubated for 24 hrs in the presence of sorbitol; assay type: functional
Cryptococcus neoformans [20] = experiment: Antifungal activity against Cryptococcus neoformans ATCC 208821 assessed as disruption of fungal wall by measuring fungal growth incubated for 24 hrs in the presence of sorbitol; assay type: functional

SMILES | MIC (Candida albicans [1]) [mg/L] | MIC (Cryptococcus neoformans [2]) [mg/L] | MIC (Candida albicans [3]) [mg/L] | inhibition (Candida tropicalis) [%] | IC50 [4] [µM] | MIC (Aspergillus flavus [5]) [mg/L] | MIC (Aspergillus fumigatus [6]) [mg/L] | MIC (Candida albicans [9]) [mg/L] | MIC (Aspergillus fumigatus [10]) [mg/L] | MIC (Cryptococcus neoformans [11]) [mg/L] | MIC (Aspergillus flavus [12]) [mg/L] | fractional inhibitory concentration index (FICI) (Candida albicans [13]) | fractional inhibitory concentration index (FICI) (Aspergillus fumigatus [14]) | fractional inhibitory concentration index (FICI) (Cryptococcus neoformans [15]) | fractional inhibitory concentration index (FICI) (Aspergillus flavus [16]) | other results
CCCCCOc1ccc(-c2cc(-c3ccc(C(=O)N[C@H]4C[C@@H](O)[C@@H](O)NC(=O)[C@@H]5[C@@H](O)[C@@H](C)CN5C(=O)[C@H]([C@H](O)CC(N)=O)NC(=O)[C@H]([C@H](O)[C@@H](O)c5ccc(O)c(OS(=O)(=O)O)c5)NC(=O)[C@@H]5C[C@@H](O)CN5C(=O)[C@H]([C@@H](C)O)NC4=O)cc3)no2)cc1 [MICAFUNGIN] (X1-[Orn(4R-OH,5R-OH)]T[Hyp][hTyr(3S-OH,4S-OH,3'-OSO3H)][Gln(3R-OH)][Pro(3S-OH,4S-Me)]; lactam 1-C) | 0.063 (≈ 0.0496 µM) | > 512 | 256 (≈ 202 µM) |  |  |  |  |  |  |  |  |  |  |  |  | 
COc1ccc2c(c1)C1(CCN(C(=O)/C=C/C(=O)Nc3ccc(F)c(Cl)c3)CC1)OC(=O)N2 | 64 (≈ 135 µM) | 64 (≈ 135 µM) | 64 (≈ 135 µM) | 70 | 160 | 16 (≈ 33.8 µM) | 16 (≈ 33.8 µM) | 64 | 8 | 32 | 64 | 2 | 0.75 | 0.625 | 1.125 | MIC (Candida albicans [7]): 53.3 mg/L (≈ 113 µM); MIC (Cryptococcus neoformans [8]): 64 mg/L (≈ 135 µM)
O=C(/C=C/C(=O)N1CCCC12Cc1ccccc1NC2=O)Nc1cccc([N+](=O)[O-])c1 (stereo not drawn) |  |  |  |  |  |  |  |  |  |  |  |  |  |  |  | IC50 [17]: 100 µM
COc1ccc2c(c1)C1(CCN(C(=O)/C=C/C(=O)Nc3ccc([N+](=O)[O-])cc3OC)CC1)OC(=O)N2 | 128 (≈ 258 µM) | 64 (≈ 129 µM) |  | 86 | 100 | 42.7 (≈ 85.9 µM) | 64 (≈ 129 µM) | 16 | 32 | 32 | 16 | 1.13 | 1.5 | 1 | 1.37 | MIC (Aspergillus flavus [18]): > 512 mg/L; MIC (Aspergillus fumigatus [19]): 512 mg/L; MIC (Cryptococcus neoformans [20]): > 512 mg/L
